Source: patent US9995734B2, “Human T cell line assay for evaluating the immunologic identity of glatiramer acetate preparations” (Mylan Inc., priority 2013, dated 2018)
Values joined by “and” are separate entries in the source; they are usually repeats but may differ in a detail not shown here. Equal entries are not always repeated.

What was measured:
Type in all cases: cell-based, human
[1] = tested on: Donor 3 GMA T-Cell Lines; experiment: ATP proliferation assay (CellTiter Glo), Donor 3 GMA T-cell lines, incl. reactivity to non-canonical GA peptides; settings: for proliferation response to non-canonical GA peptides: 0, 1, 3, 10 μg/mL; for Non-Canonical Peptide Reactivity: at least one proliferation value >=2 times no antigen control
[2] = tested on: Donor 4 COP T-Cell Lines; experiment: ATP proliferation assay (CellTiter Glo), Donor 4 COP T-cell lines, incl. reactivity to non-canonical GA peptides; settings: for Non-Canonical Peptide Non-Reactivity: proliferation <2 times no antigen control; for Proliferation (luminescent ATP assay), Mean: T-cell line 205-1F4, Day 71, autologous B-LCL
[3] = tested on: Donor 3 COP T-Cell Lines; experiment: ATP proliferation assay (CellTiter Glo), Donor 3 COP T-cell lines, incl. reactivity to non-canonical GA peptides; settings: for Non-Canonical Peptide Reactivity: at least one proliferation value >=2 times no antigen control

poly (Glu-Lys; 1:4) [GL 14]
proliferation response to non-canonical GA peptides ([1]; 165-B5G and 165-E7G, Day 55): responded well
Non-Canonical Peptide Reactivity ([1]; 165-B5G): GL 14
Non-Canonical Peptide Reactivity ([1]; 165-C5G): GL 14
Non-Canonical Peptide Reactivity ([1]; 165-E7G): GL 14
Non-Canonical Peptide Reactivity ([1]; 165-E9G): GL 14
Non-Canonical Peptide Reactivity ([1]; 165-F5G): GL 14
proliferation response to non-canonical GA peptides ([1]; 165-F10G, 165-C5G, 165-H11G, 165-C7C, 165-E9G, 165-F5G, minimum 55 days in culture): responded well
Non-Canonical Peptide Reactivity ([1]; 165-F10G): GL 14
Non-Canonical Peptide Reactivity ([1]; 165-H11G): GL 14
Reactive T-Cell Line ([1]; Donor 3 GMA lines, at least a 50% increase in proliferation relative to a control after stimulation with the non-canonical GA peptide): 165-B5G (Donor 3) and 165-C5G (Donor 3) and 165-E7G (Donor 3) and 165-E9G (Donor 3) and 165-F5G (Donor 3) and 165-F10G (Donor 3) and 165-H11G (Donor 3)
Proliferation (luminescent ATP assay), Mean ([1]; T-cell line 165-B5G, 1.25 μg/mL antigen, Day 55 of culturing, No Antigen Value 846): 3912 RLU
Proliferation (luminescent ATP assay), Mean ([1]; T-cell line 165-B5G, 2.5 μg/mL antigen, Day 55 of culturing, No Antigen Value 846): 3245 RLU
Proliferation (luminescent ATP assay), Mean ([1]; T-cell line 165-B5G, 5 μg/mL antigen, Day 55 of culturing, No Antigen Value 846): 501 RLU
Proliferation (luminescent ATP assay), Mean ([1]; T-cell line 165-B5G, 10 μg/mL antigen, Day 55 of culturing, No Antigen Value 846): 45 RLU
Proliferation (luminescent ATP assay), Mean ([1]; T-cell line 165-C5G, 1.25 μg/mL antigen, autologous B-LCL): 1412 RLU
Proliferation (luminescent ATP assay), Mean ([1]; T-cell line 165-C5G, 2.5 μg/mL antigen, autologous B-LCL): 5418 RLU
Proliferation (luminescent ATP assay), Mean ([1]; T-cell line 165-C5G, 5 μg/mL antigen, autologous B-LCL): 703 RLU
Proliferation (luminescent ATP assay), Mean ([1]; T-cell line 165-C5G, 10 μg/mL antigen, autologous B-LCL): 43 RLU
Proliferation (luminescent ATP assay), Mean ([1]; T-cell line 165-E7G, 1.25 μg/mL antigen, autologous B-LCL, Day 55): 10001 RLU
Proliferation (luminescent ATP assay), Mean ([1]; T-cell line 165-E7G, 2.5 μg/mL antigen, autologous B-LCL, Day 55): 14902 RLU
Proliferation (luminescent ATP assay), Mean ([1]; T-cell line 165-E7G, 5 μg/mL antigen, autologous B-LCL, Day 55): 4087 RLU
Proliferation (luminescent ATP assay), Mean ([1]; T-cell line 165-E7G, 10 μg/mL antigen, autologous B-LCL, Day 55): 58 RLU
Proliferation (luminescent ATP assay), Mean ([1]; T-cell line 165-E9G, 1.25 μg/mL antigen, autologous B-LCL): 145 RLU
Proliferation (luminescent ATP assay), Mean ([1]; T-cell line 165-E9G, 2.5 μg/mL antigen, autologous B-LCL): 801 RLU
Proliferation (luminescent ATP assay), Mean ([1]; T-cell line 165-E9G, 5 μg/mL antigen, autologous B-LCL): 268 RLU
Proliferation (luminescent ATP assay), Mean ([1]; T-cell line 165-E9G, 10 μg/mL antigen, autologous B-LCL): 38 RLU
Proliferation (luminescent ATP assay), Mean ([1]; T-cell line 165-F5G, 1.25 μg/mL antigen, autologous B-LCL): 559 RLU
Proliferation (luminescent ATP assay), Mean ([1]; T-cell line 165-F5G, 2.5 μg/mL antigen, autologous B-LCL): 2779 RLU
Proliferation (luminescent ATP assay), Mean ([1]; T-cell line 165-F5G, 5 μg/mL antigen, autologous B-LCL): 89 RLU
Proliferation (luminescent ATP assay), Mean ([1]; T-cell line 165-F5G, 10 μg/mL antigen, autologous B-LCL): 38 RLU
Proliferation (luminescent ATP assay), Mean ([1]; T-cell line 165-F10G, 1.25 μg/mL antigen, autologous B-LCL): 5153 RLU
Proliferation (luminescent ATP assay), Mean ([1]; T-cell line 165-F10G, 2.5 μg/mL antigen, autologous B-LCL): 19489 RLU
Proliferation (luminescent ATP assay), Mean ([1]; T-cell line 165-F10G, 5 μg/mL antigen, autologous B-LCL): 1990 RLU
Proliferation (luminescent ATP assay), Mean ([1]; T-cell line 165-F10G, 10 μg/mL antigen, autologous B-LCL): 53 RLU
Proliferation (luminescent ATP assay), Mean ([1]; T-cell line 165-H11G, 1.25 μg/mL antigen, autologous B-LCL): 144 RLU
Proliferation (luminescent ATP assay), Mean ([1]; T-cell line 165-H11G, 2.5 μg/mL antigen, autologous B-LCL): 4416 RLU
Proliferation (luminescent ATP assay), Mean ([1]; T-cell line 165-H11G, 5 μg/mL antigen, autologous B-LCL): 118 RLU
Proliferation (luminescent ATP assay), Mean ([1]; T-cell line 165-H11G, 10 μg/mL antigen, autologous B-LCL): 40 RLU
Non-Canonical Peptide Non-Reactivity ([2]; 205-1F4): GL 14
reactivity to non-canonical GA peptide ([2]; 205-1H3, at 1 μg/mL of antigen): showed reactivity
Non-Canonical Peptide Reactivity ([2]; 205-1H3, at least one proliferation value >=2 times no antigen control): GL 14
Non-Canonical Peptide Non-Reactivity ([2]; 205-1H11): GL 14
Reactive T-Cell Line ([2]; Donor 4 COP lines, at least a 50% increase in proliferation relative to a control after stimulation with the non-canonical GA peptide): 205-1H3 (Donor 4)
Nonreactive T-Cell Line ([2]; Donor 4 COP lines, stimulation with the non-canonical GA peptide): 205-1F4 (Donor 4) and 205-1H11 (Donor 4)
Proliferation (luminescent ATP assay), Mean ([2]; 1 μg/mL antigen): 12630
Proliferation (luminescent ATP assay), Mean ([2]; 3 μg/mL antigen): 1423
Proliferation (luminescent ATP assay), Mean ([2]; 10 μg/mL antigen): 158
Reactivity (proliferation), Mean ([2]; T-cell line 205-1H3, 1 μg/mL antigen, 0 μg/mL 4121.0): 15619.0
Reactivity (proliferation), Mean ([2]; T-cell line 205-1H3, 3 μg/mL antigen, 0 μg/mL 4121.0): 1053.3
Reactivity (proliferation), Mean ([2]; T-cell line 205-1H3, 10 μg/mL antigen, 0 μg/mL 4121.0): 61.0
Reactivity (proliferation), Mean ([2]; T-cell line 205-1H11, 1 μg/mL antigen, 0 μg/mL 6941): 5954 RLU
Reactivity (proliferation), Mean ([2]; T-cell line 205-1H11, 10 μg/mL antigen, 0 μg/mL 6941): 102 RLU
Reactivity (proliferation), Mean ([2]; T-cell line 205-1H11, 30 μg/mL antigen, 0 μg/mL 6941): 74 RLU
Non-Canonical Peptide Reactivity ([3]; 165-C4C): GL 14
Non-Canonical Peptide Reactivity ([3]; 165-C7C): GL 14
proliferation response to non-canonical GA peptides ([3]; 165-F3C (Day 77) and 165-C4C (Day 66), 0, 1, 3, 10 μg/mL): responded well
Non-Canonical Peptide Reactivity ([3]; 165-F3C): GL 14
proliferation response to non-canonical GA peptides ([3]; 165-F6C, Day 76, 0, 1.25, 2.5, 5, 10 μg/mL): reacted
response relative to the no antigen control ([3]; 165-F6C, Day 76, dose of 2.5 μg/mL antigen): 4.4 fold
Non-Canonical Peptide Reactivity ([3]; 165-F6C): GL 14
Reactive T-Cell Line ([3]; Donor 3 COP lines, at least a 50% increase in proliferation relative to a control after stimulation with the non-canonical GA peptide): 165-C4C (Donor 3) and 165-C7C (Donor 3) and 165-F6C (Donor 3) and 165-F3C (Donor 3)
Proliferation (luminescent ATP assay), Mean ([3]; T-cell line 165-C4C, 1 μg/mL antigen, Day 66 of culture, 0 μg/mL 1881): 2833
Proliferation (luminescent ATP assay), Mean ([3]; T-cell line 165-C4C, 3 μg/mL antigen, Day 66 of culture, 0 μg/mL 1881): 4920
Proliferation (luminescent ATP assay), Mean ([3]; T-cell line 165-C4C, 10 μg/mL antigen, Day 66 of culture, 0 μg/mL 1881): 49
Proliferation (luminescent ATP assay), Mean ([3]; T-cell line 165-C7C, 1.25 μg/mL antigen, autologous B-LCL): 274 RLU
Proliferation (luminescent ATP assay), Mean ([3]; T-cell line 165-C7C, 2.5 μg/mL antigen, autologous B-LCL): 1797 RLU
Proliferation (luminescent ATP assay), Mean ([3]; T-cell line 165-C7C, 5 μg/mL antigen, autologous B-LCL): 537 RLU
Proliferation (luminescent ATP assay), Mean ([3]; T-cell line 165-C7C, 10 μg/mL antigen, autologous B-LCL): 39 RLU
Proliferation (luminescent ATP assay), Mean ([3]; T-cell line 165-F3C, 1 μg/mL antigen, Day 77 of culture, 0 μg/mL 1563): 2542
Proliferation (luminescent ATP assay), Mean ([3]; T-cell line 165-F3C, 3 μg/mL antigen, Day 77 of culture, 0 μg/mL 1563): 7091
Proliferation (luminescent ATP assay), Mean ([3]; T-cell line 165-F3C, 10 μg/mL antigen, Day 77 of culture, 0 μg/mL 1563): 65
Proliferation (luminescent ATP assay), Mean ([3]; T-cell line 165-F6C, 1.25 μg/mL antigen, Day 76 of culture, No Antigen value 517): 699
Proliferation (luminescent ATP assay), Mean ([3]; T-cell line 165-F6C, 2.5 μg/mL antigen, Day 76 of culture, No Antigen value 517): 2,267
Proliferation (luminescent ATP assay), Mean ([3]; T-cell line 165-F6C, 5 μg/mL antigen, Day 76 of culture, No Antigen value 517): 114
Proliferation (luminescent ATP assay), Mean ([3]; T-cell line 165-F6C, 10 μg/mL antigen, Day 76 of culture, No Antigen value 517): 33
